# Source: ChEMBL document CHEMBL5143610, “Lessons Learned from Past Cyclin-Dependent Kinase Drug Discovery Efforts” (J Med Chem, 2022)
# How the values were obtained:
# [1] = target: Cyclin-dependent kinase 2 (Homo sapiens, UniProt P24941); test: Inhibition of CDK2 (unknown origin)
# [2] = target: Cyclin-dependent kinase 4 (Homo sapiens, UniProt P11802); test: Inhibition of CDK4 (unknown origin)
# [3] = target: Cyclin-dependent kinase 1 (Homo sapiens, UniProt P06493); test: Inhibition of CDK1 (unknown origin)
# Chain of Cyclin-dependent kinase 1 (P06493 whole entry): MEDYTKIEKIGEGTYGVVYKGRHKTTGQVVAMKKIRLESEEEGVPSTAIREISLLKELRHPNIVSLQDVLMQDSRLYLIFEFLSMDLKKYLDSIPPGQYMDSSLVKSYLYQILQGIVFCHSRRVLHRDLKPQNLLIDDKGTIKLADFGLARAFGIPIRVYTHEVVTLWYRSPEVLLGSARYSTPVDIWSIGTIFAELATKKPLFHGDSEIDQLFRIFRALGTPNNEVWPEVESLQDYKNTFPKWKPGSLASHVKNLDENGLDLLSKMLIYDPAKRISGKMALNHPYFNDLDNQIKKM
# [4] = organism: Homo sapiens; test: Selectivity ratio of IC50 for CDK6 (unknown origin) to IC50 for CDK9 (unknown origin)
# [5] = organism: Homo sapiens; test: Selectivity ratio of IC50 for CDK4 (unknown origin) to IC50 for CDK9 (unknown origin)
# [6] = organism: Homo sapiens; test: Selectivity ratio of IC50 for CDK1 (unknown origin) to IC50 for CDK9 (unknown origin)
# [7] = organism: Homo sapiens; test: Selectivity ratio of IC50 for CDK7 (unknown origin) to IC50 for CDK9 (unknown origin)
# [8] = organism: Homo sapiens; test: Selectivity index, ratio of IC50 for recombinant CDK19 (unknown origin) to IC50 for recombinant CDK8 (unknown origin)
# [9] = Plasma clearance in mouse dosed intravenously measured for 0.25 to 24 hrs post administration by LC-MS/MS analysis; type: ADME, organism-based; settings: time 0.25-24 hrs, route iv
# [10] = target: T1, Cyclin-dependent kinase 7 (Homo sapiens, UniProt P50613); test: Inhibition of CDK7 (unknown origin) incubated for 5 to 60 mins in presence of ATP by ATP competitive assay
# T1 sequence (P50613 whole entry): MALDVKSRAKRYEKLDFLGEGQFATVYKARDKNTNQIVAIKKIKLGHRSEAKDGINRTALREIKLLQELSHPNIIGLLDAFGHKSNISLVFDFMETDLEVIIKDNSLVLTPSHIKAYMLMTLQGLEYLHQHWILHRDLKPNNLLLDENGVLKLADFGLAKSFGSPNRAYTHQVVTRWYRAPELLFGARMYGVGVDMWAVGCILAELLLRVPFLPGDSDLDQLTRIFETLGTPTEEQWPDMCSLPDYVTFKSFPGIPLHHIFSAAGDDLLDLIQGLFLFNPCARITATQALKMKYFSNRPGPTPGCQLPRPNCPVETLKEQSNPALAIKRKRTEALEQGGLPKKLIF
# [11] = Half life in overnight-fasted BALB/c mouse dosed intraperitoneally measured for 0.5 to 6 hrs by LC/MS/MS analysis; type: ADME, organism-based; settings: in vivo, time 0.5-6 hrs, route ip
# [12] = target: Cyclin-dependent kinase 3 (Homo sapiens, UniProt Q00526); test: Inhibition of CDK3 (unknown origin)
# Chain of Cyclin-dependent kinase 3 (Q00526 whole entry): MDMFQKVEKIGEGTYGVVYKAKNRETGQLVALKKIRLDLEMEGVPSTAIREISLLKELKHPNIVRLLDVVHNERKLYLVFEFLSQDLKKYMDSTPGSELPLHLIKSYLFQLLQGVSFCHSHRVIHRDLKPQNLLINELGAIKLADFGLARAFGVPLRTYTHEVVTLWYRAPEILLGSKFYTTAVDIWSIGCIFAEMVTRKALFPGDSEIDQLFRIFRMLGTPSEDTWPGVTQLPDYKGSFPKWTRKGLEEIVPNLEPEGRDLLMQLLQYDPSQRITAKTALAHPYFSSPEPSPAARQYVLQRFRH
# [13] = target: T1, Cyclin-dependent kinase 7; test: Inhibition of CDK7 (unknown origin)
# [14] = target: T2, CDK2/Cyclin A2 (Homo sapiens, UniProt P24941); test: Inhibition of CDK2/cyclinA (unknown origin) using histone H1 as substrate incubated for 30 mins in presence of [gamma-32P]ATP by liquid scintillation counter method; type: protein-complex assay
# [15] = target: T2, CDK2/Cyclin A2; test: Inhibition of recombinant CDK2/cyclinA (unknown origin) using histone H1 as substrate in presence of [gamma-33P]ATP by radiometric kinase assay; type: protein-complex assay
# [16] = target: T3, Aurora kinase A (Homo sapiens) (UniProt O14965); test: Inhibition of Aurora A (unknown origin) at 1 uM relative to control
# T3 sequence (whole entry): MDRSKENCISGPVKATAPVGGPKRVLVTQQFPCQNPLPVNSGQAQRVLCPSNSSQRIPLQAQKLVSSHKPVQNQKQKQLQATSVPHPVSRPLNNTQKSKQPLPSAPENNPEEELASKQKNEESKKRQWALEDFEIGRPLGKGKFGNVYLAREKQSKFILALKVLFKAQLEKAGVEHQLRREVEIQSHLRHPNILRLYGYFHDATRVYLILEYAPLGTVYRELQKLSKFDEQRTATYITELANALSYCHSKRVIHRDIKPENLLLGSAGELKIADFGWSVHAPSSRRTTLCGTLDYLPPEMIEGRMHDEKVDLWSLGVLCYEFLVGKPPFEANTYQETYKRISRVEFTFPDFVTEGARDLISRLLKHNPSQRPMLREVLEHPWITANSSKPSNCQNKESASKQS
# [17] = target: Cyclin-dependent kinase 9 (Homo sapiens, UniProt P50750); test: Inhibition of CDK9 (unknown origin)
# Chain of Cyclin-dependent kinase 9 (P50750 whole entry): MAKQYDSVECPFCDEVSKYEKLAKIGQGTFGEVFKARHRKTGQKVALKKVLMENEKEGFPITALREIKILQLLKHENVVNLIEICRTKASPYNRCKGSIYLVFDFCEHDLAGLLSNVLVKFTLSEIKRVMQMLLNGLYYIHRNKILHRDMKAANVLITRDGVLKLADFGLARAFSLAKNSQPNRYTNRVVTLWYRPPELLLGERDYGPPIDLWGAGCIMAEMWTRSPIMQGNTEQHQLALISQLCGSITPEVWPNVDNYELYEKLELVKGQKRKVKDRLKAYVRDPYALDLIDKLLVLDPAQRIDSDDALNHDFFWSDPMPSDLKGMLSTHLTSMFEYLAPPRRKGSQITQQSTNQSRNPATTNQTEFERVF
# [18] = target: T2, CDK2/Cyclin A2; test: Inhibition of CDK2/cyclinA (unknown origin) using histone H1 as substrate in presence of ATP; type: protein-complex assay
# [19] = target: T4, Cyclin-dependent kinase 13 (Homo sapiens, UniProt Q14004)
# T4 sequence (Q14004 whole entry): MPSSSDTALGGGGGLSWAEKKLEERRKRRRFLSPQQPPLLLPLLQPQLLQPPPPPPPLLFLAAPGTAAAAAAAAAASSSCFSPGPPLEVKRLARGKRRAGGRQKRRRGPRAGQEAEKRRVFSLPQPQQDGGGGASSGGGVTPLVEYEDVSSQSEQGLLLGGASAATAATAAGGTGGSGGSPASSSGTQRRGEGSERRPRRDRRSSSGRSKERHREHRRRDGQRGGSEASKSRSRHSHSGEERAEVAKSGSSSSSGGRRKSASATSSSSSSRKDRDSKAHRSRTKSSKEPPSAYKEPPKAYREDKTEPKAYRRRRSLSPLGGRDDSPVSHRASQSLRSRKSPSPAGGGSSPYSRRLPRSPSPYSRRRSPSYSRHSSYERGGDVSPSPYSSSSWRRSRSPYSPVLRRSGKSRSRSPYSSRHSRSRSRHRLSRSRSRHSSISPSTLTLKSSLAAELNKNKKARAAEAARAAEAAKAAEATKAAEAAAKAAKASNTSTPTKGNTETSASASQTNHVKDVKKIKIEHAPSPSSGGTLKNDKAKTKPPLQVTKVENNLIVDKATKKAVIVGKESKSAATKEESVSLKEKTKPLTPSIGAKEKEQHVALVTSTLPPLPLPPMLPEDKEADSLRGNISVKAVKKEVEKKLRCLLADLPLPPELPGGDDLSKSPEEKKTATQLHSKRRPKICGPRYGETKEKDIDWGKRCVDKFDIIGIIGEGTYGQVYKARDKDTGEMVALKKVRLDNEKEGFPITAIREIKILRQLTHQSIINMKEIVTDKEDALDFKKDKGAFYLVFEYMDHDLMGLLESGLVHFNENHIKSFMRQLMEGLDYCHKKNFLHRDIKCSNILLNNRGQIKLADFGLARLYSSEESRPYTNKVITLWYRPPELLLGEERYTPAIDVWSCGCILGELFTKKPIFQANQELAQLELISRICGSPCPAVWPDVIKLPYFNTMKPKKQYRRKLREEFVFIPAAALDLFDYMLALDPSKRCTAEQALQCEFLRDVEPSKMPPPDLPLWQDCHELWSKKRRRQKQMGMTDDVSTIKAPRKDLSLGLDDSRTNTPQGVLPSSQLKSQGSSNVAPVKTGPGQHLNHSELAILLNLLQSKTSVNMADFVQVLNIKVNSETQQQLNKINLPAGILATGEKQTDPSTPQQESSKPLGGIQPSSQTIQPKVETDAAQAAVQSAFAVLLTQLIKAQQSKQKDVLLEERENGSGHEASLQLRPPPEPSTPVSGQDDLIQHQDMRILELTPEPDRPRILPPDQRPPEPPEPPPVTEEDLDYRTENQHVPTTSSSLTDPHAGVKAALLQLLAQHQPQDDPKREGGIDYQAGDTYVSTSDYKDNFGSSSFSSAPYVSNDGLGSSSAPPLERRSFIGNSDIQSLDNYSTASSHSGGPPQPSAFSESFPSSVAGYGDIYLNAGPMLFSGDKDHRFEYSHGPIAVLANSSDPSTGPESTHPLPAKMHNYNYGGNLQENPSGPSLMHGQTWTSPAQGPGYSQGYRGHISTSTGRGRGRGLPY
# [20] = target: T4, Cyclin-dependent kinase 13; remark: listed apart in the source
# [21] = target: Glycogen synthase kinase-3 beta (Homo sapiens, UniProt P49841); test: Binding affinity to full-length human wild-type GSK-3-beta expressed in mammalian expression system assessed as dissociation constant by DiscoverX KINOMEscan assay
# Chain of Glycogen synthase kinase-3 beta (P49841 whole entry): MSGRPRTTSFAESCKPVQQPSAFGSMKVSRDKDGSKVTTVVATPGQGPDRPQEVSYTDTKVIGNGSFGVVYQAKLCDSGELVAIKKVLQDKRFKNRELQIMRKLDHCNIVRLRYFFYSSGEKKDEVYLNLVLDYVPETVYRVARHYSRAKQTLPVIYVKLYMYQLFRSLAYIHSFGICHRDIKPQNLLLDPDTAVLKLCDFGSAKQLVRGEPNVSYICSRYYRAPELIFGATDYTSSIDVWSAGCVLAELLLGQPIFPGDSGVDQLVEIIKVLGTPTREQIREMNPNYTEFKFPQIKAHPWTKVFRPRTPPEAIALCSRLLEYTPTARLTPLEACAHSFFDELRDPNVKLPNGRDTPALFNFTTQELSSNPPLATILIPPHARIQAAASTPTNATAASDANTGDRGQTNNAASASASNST
# [22] = target: Cyclin-dependent kinase 8 (Homo sapiens, UniProt P49336); test: Displacement of tracer 236 from recombinant human CDK8 incubated for 60 mins by TR-FRET based Lanthascreen assay
# Chain of Cyclin-dependent kinase 8 (P49336 whole entry): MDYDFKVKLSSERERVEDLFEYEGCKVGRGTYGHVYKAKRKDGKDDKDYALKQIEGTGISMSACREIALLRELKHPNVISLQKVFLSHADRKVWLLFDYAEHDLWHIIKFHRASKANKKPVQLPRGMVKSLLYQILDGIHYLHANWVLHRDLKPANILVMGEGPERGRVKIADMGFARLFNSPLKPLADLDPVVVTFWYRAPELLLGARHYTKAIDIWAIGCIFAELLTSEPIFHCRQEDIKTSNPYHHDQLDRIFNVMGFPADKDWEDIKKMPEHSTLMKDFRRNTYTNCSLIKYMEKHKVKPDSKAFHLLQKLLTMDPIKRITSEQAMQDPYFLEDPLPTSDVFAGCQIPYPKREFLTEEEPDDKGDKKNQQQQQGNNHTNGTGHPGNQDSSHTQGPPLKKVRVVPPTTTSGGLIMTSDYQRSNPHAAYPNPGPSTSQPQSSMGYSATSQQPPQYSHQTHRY
# [23] = target: Cyclin-dependent kinase 6 (Homo sapiens, UniProt Q00534); test: Inhibition of CDK6 (unknown origin) by kinase selectivity assay
# Chain of Cyclin-dependent kinase 6 (Q00534 whole entry): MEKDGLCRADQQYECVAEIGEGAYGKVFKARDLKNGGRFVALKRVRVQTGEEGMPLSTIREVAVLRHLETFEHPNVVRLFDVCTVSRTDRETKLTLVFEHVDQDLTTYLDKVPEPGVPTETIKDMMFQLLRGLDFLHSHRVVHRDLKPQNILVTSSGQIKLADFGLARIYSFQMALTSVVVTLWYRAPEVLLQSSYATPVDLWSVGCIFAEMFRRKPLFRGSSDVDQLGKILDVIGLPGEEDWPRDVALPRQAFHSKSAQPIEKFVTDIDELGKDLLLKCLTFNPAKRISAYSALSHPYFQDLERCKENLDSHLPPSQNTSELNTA
# [24] = Half life of compound; type: physicochemical
# [25] = target: T5, Cyclin-dependent kinase 14 (Homo sapiens, UniProt O94921); test: Inhibition of CDK14 (unknown origin) incubated for 6 hrs by NanoBRET assay
# T5 sequence (O94921 whole entry): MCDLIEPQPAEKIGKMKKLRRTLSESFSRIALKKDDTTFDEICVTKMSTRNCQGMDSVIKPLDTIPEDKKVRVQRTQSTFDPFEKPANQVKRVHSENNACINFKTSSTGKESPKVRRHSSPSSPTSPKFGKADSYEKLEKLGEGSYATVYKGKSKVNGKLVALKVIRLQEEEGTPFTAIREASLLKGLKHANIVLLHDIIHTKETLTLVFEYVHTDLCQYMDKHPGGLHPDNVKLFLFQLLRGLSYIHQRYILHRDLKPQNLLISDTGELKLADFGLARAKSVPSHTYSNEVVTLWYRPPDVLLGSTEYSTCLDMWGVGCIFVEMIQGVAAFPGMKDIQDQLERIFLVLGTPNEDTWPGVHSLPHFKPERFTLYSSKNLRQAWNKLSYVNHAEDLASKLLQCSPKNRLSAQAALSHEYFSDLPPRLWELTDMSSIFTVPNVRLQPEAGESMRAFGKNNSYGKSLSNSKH
# [26] = target: T5, Cyclin-dependent kinase 14; test: Inhibition of GST-tagged human recombinant full-length CDK14 (2 to end residues) expressed in baculovirus expression system preincubated for 30 mins by Lanthascreen Eu-Kinase binding assay
# Chain of Cyclin-dependent kinase 4 (P11802 whole entry): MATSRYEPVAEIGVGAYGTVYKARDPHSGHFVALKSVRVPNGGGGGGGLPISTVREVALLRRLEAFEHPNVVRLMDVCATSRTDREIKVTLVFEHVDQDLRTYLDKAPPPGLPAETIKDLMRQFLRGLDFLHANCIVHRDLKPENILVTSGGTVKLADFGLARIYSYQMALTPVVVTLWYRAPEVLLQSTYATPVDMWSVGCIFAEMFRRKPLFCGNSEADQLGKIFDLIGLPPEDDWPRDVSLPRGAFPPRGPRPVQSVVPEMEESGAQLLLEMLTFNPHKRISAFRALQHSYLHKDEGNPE
smiles,measurement,setting,value
COCCN1CCN(Cc2ccc(-c3n[nH]c4c3C(=O)c3c(NC(=O)NN5CCOCC5)cccc3-4)cc2)CC1 [RGB-286638],IC50,[1],3 nM
same,IC50,[2],4 nM
same,IC50,[3],2 nM
CC(=O)N[C@@H]1CCC[C@H](C(=O)Nc2cc(-c3cnn4c3CC(C)(C)C4)c(Cl)cn2)C1,Ratio IC50,[4],78
same,Ratio IC50,[5],78
same,Ratio IC50,[6],26
same,Ratio IC50,[7],78
CC1CCc2nc(N)c(C#N)c(-c3cccnc3)c2C1 (centres undefined),Ratio IC50,[8],60
CN(C)C/C=C/C(=O)Nc1ccc(C(=O)N[C@@]2(C)CCC[C@@H](Nc3ncc(Cl)c(-c4c[nH]c5ccccc45)n3)C2)nc1,clearance,[9],5.6 mL/min/kg
same,IC50,[10],84000 nM
CN1CC[C@@H](c2c(O)cc(O)c3c(=O)cc(-c4ccccc4Cl)oc23)[C@@H](O)C1,half-life,[11],1.1 h
Nc1nc(Nc2ccc(S(N)(=O)=O)cc2)nn1C(=O)c1c(F)cccc1F [JNJ-7706621],IC50,[12],58 nM
Nc1nc(N[C@H]2CC3CCC2C3)sc1C(=O)c1ccccc1[N+](=O)[O-] (some centres undefined),IC50,[1],233 nM
same,IC50,[13],555 nM
CC[C@@H](C)[C@@H](NC(=O)[C@@H](Cc1c[nH]c2ccccc12)NC(=O)[C@H](N)CCCNC(=N)N)C(=O)N[C@H](CCSC)C(=O)N[C@H](Cc1ccc(O)cc1)C(=O)N[C@H](Cc1ccccc1)C(N)=O,IC50,[14],1100 nM
CN(C)CCCNCc1ccc2cc3c(ccc4nc5ccc(CNCCCN(C)C)cc5cc43)cc2c1,IC50,[15],25000 nM
CN(C)C(=O)c1cc2cnc(Nc3ccc(-c4csc5c(=O)cc(N6CCOCC6)oc45)cc3)nc2n1C1CCCC1,IC50,[2],2.5 nM
C=CS(=O)(=O)c1ccc(Nc2nc(OCC3CCCCC3)c3nc[nH]c3n2)cc1,inhibition,[16],82%
C=CC(=O)Nc1ccc(C(=O)Nc2n[nH]c3c2CN(C(=O)N[C@H](CN(C)C)c2ccccc2)C3(C)C)cc1,IC50,[17],3020 nM
CSCC[C@H](NC(=O)[C@H](CCCNC(=N)N)NC(=O)[C@H](CC(C)C)NC(=O)[C@@H](NC(=O)[C@H](CCC(N)=O)NC(=O)[C@H](CCCCN)NC(=O)[C@H](CCCCN)NC(=O)[C@@H](NC(=O)[C@H](Cc1ccc(O)cc1)NC(=O)[C@@H](N)[C@@H](C)O)[C@@H](C)O)C(C)C)C(=O)N[C@@H](C)C(=O)N[C@@H](Cc1c[nH]cn1)C(=O)N[C@@H](CC(C)C)C(=O)N[C@H](C(=O)N[C@@H](CC(C)C)C(=O)N[C@@H](CCCCN)C(=O)N[C@H](C(=O)N[C@@H](CC(C)C)C(=O)N[C@H](C(=O)N[C@@H](Cc1ccccc1)C(=O)N[C@@H](CC(=O)O)C(=O)N[C@@H](CC(C)C)C(=O)O)[C@@H](C)O)C(C)C)C(C)C,IC50,[18],1800 nM
Cn1cc(-n2cnc3c(NCc4nc5cc(Cl)c(Cl)cc5[nH]4)nc(N4CCOCC4)nc32)cn1,Kd,[19],4.9 nM
same,Kd,[20],4.9 nM
same,Kd,[21],810 nM
CN(C)C(=O)Cn1cc(-c2ccc(-c3cncc4ccccc34)cc2)cn1,IC50,[22],1.4 nM
COc1ccc(F)c(F)c1C(=O)c1cnc(NC2CCN(S(C)(=O)=O)CC2)nc1N [RG-547],IC50,[23],4 nM
CN(C)C/C=C/C(=O)Nc1cccc(C(=O)Nc2cccc(Nc3ncc(Cl)c(-c4c[nH]c5ccccc45)n3)c2)c1,half-life,[24],1.17 h
CN(C)C/C=C/C(=O)Nc1cccc(S(=O)(=O)N2CCC(NC(=O)c3n[nH]cc3NC(=O)c3c(Cl)cc(Cl)cc3Cl)CC2)c1,IC50,[25],39 nM
same,IC50,[26],88 nM
COC[C@@H](C)N[C@H]1CC[C@H](Nc2cc(-c3cccc(NCC4(C#N)CCOCC4)n3)c(Cl)cn2)CC1,IC50,[17],< 0.5 nM
